Results as given in ChEMBL document CHEMBL1909046, “DrugMatrix in vitro pharmacology data”.

Legend:
[1] = molecular target: Histamine H2 receptor (Homo sapiens, UniProt P25021); format: cell membranes, CHO-K1, Membrane; conditions: cho-k1; further: in other assays of this panel Not Active means under 50% inhibition at 10 µM
[2] = molecular target: Insulin receptor (Rattus norvegicus, UniProt P15127); format: cell membranes, Wistar, Liver, Membrane; further: in other assays of this panel Not Active means under 50% inhibition at 10 µM
Chain of Insulin receptor (P15127 27-759 limits assumed): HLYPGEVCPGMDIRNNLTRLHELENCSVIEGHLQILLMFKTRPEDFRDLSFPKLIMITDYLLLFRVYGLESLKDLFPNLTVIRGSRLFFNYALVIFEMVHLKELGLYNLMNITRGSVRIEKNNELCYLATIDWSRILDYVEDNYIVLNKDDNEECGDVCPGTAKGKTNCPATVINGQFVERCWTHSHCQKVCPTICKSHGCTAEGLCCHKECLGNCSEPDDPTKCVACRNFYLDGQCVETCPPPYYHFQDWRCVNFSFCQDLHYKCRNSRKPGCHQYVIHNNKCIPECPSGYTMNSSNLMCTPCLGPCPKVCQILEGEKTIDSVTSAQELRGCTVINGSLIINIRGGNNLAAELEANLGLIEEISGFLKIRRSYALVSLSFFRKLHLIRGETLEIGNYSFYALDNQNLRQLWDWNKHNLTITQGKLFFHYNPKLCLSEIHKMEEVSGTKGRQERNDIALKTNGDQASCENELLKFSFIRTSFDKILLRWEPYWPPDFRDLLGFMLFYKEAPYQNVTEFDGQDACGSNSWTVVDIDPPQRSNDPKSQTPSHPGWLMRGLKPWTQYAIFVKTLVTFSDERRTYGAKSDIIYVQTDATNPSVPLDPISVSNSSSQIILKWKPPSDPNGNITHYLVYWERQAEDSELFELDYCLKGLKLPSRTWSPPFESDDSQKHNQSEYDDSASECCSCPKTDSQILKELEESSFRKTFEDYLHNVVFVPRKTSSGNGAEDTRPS
Chain of Insulin receptor (P15127 764-1383 limits assumed): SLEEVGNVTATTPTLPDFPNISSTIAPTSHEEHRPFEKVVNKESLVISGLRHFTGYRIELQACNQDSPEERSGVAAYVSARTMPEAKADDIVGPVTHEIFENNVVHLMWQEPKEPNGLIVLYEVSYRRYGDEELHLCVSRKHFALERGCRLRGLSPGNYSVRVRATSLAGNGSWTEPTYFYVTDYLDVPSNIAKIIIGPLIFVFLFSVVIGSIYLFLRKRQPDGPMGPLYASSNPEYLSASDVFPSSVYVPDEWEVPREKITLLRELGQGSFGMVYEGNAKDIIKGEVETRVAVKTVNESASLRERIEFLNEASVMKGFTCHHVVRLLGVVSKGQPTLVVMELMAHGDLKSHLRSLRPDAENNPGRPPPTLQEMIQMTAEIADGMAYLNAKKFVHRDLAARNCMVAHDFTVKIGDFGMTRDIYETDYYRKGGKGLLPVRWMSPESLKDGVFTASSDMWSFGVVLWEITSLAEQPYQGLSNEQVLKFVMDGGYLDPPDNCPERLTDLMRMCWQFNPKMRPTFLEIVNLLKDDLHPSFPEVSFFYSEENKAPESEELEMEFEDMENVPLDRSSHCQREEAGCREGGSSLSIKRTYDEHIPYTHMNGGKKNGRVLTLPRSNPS

[3] = DRUGMATRIX: Sodium/nucleoside co-transporter radioligand binding (ligand: nitrobenzylthioinosine); format: cell membranes, Cavia porcellus, Dunkin-Hartley, Cerebral cortex, Membrane; conditions: Not Active = under 50% inhibition at 10 µM
[4] = molecular target: T1, Amine oxidase [flavin-containing] A (Homo sapiens, UniProt P21397); experiment: DRUGMATRIX: Monoamine Oxidase MAO-A enzyme inhibition (substrate: Kynuramine); parameters: species or system BTI-TN-5B1-4; conditions: Not Active = under 50% inhibition at 10 µM
T1 sequence (P21397 whole entry): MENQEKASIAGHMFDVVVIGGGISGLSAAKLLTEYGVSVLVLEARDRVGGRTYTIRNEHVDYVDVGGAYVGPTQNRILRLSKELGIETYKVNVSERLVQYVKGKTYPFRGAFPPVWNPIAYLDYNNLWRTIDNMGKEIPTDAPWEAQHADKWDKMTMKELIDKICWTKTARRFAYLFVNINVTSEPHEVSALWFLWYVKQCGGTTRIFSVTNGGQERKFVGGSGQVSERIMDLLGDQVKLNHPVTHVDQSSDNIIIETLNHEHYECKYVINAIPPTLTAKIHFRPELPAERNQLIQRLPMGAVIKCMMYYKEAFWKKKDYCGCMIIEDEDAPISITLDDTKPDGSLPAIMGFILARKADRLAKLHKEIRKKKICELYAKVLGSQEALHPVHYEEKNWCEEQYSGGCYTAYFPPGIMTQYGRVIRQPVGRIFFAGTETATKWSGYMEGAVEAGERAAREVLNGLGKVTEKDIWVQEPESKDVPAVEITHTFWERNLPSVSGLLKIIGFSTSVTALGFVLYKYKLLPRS

[5] = molecular target: T2, Estrogen receptor (Homo sapiens, UniProt P03372); conditions: sf9; further: in other assays of this panel Not Active means under 50% inhibition at 10 µM
T2 sequence (P03372 whole entry): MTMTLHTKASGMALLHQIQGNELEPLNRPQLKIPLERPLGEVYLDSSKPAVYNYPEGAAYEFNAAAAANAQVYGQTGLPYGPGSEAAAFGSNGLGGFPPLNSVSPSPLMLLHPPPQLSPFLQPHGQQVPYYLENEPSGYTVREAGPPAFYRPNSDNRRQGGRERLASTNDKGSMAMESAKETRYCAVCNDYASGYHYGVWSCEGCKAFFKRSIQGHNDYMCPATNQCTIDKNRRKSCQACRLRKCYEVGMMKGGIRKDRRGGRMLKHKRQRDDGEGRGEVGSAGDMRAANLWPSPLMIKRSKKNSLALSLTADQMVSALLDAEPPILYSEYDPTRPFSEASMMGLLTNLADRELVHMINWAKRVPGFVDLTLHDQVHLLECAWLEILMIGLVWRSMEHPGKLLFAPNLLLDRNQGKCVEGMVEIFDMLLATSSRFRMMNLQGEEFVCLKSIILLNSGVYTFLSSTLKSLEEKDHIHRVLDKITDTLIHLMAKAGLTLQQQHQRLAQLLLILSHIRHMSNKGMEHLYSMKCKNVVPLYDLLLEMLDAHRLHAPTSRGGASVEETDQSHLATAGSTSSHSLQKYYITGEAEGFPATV

[6] = DRUGMATRIX: Imidazoline I2, Central radioligand binding (ligand: [3H] Idazoxan); format: cell membranes, Rattus norvegicus, Wistar, Cerebral cortex, Membrane; conditions: Not Active = under 50% inhibition at 10 µM

Chain of Histamine H2 receptor (P25021 whole entry): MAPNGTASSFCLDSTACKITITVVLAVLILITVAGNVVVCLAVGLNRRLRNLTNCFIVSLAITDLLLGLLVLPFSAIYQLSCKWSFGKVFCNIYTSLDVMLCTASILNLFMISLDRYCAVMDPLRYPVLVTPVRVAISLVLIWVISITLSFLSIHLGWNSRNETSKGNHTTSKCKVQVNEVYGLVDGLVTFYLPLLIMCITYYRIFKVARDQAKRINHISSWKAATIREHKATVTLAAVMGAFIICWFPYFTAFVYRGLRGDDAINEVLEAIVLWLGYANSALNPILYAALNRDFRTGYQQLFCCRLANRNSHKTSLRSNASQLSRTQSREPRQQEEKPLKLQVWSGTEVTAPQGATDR

Structure (SMILES) | IC50 [1] | IC50 [2] | IC50 [3] | Ki [3] | IC50 ([4]; bti-tn-5b1-4) | IC50 [5] | IC50 [6] | Ki [6] | IC50 ([3]; read-out: IC50) [µM] | Ki ([3]; read-out: Ki) [µM] | IC50 ([4]; read-out: IC50) [µM]
Cc1cccc(N(C)C(=S)Oc2ccc3ccccc3c2)c1 [TOLNAFTATE] | Not Active | Not Active | Not Active | Not Active | Not Active | Not Active | Not Active | Not Active |  |  | 
Cc1oncc1C(=O)Nc1ccc(C(F)(F)F)cc1 [LEFLUNOMIDE] | Not Active | Not Active |  |  |  | Not Active | Not Active | Not Active | 15.1 | 5.16 | 20.7
Nc1nc2ccc(OC(F)(F)F)cc2s1 [RILUZOLE] | Not Active | Not Active | Not Active | Not Active | Not Active | Not Active | Not Active | Not Active |  |  | 
Cc1c(C)c2c(c(C)c1O)CCC(C)(COc1ccc(CC3SC(=O)NC3=O)cc1)O2 (centres undefined) [TROGLITAZONE] | Not Active | Not Active | Not Active | Not Active | Not Active | Not Active | Not Active | Not Active |  |  | 
CCCOc1ccccc1-c1nc2nn[nH]c2c(=O)[nH]1 [ZAPRINAST] | Not Active | Not Active | Not Active | Not Active | Not Active | Not Active | Not Active | Not Active |  |  | 
CC[C@]1(O)C[C@H]2CN(CCc3c([nH]c4ccccc34)[C@@](C(=O)OC)(c3cc4c(cc3OC)N(C=O)[C@H]3[C@@](O)(C(=O)OC)[C@H](OC(C)=O)[C@]5(CC)C=CCN6CC[C@]43[C@@H]65)C2)C1 [VINCRISTINE] | Not Active | Not Active | Not Active | Not Active | Not Active | Not Active | Not Active | Not Active |  |  | 
COc1c(C)c2c(c(O)c1C/C=C(\C)CCC(=O)O)C(=O)OC2 [MYCOPHENOLIC ACID] | Not Active | Not Active | Not Active | Not Active | Not Active | Not Active | Not Active | Not Active |  |  | 
CSc1ccc(/C=C2/C(C)=C(CC(=O)O)c3cc(F)ccc32)cc1 [SULINDAC SULFIDE] | Not Active | Not Active | Not Active | Not Active | Not Active | Not Active | Not Active | Not Active |  |  | 
